Several values for one entry are separate records, joined by “and”; a condition that tells them apart may be missing. Identical values can stand only once.
Assays:
HN30408cl7 (H5N1) [1] = system: HN30408cl7 (H5N1); design: species or system BALB/c mice; details: mouse, in vivo
HN30408cl7 (H5N1) [2] = system: HN30408cl7 (H5N1); design: species or system BALB/c mice; Virus titers in Lungs, Day 6 / Virus titers in Lungs, Day 9 / Virus titers in Brain, Day 9: unit not given here; details: mouse, in vivo
HN30408cl7 (H5N1) [3] = system: HN30408cl7 (H5N1); design: species or system BALB/c mice; Virus titer in Lungs, Day 3 / Virus titer in Lungs, Day 6: unit not given here; details: mouse, in vivo
Ind3006 (H5N1) [4] = type: in vivo, BALB/c mice; details: 21 days
HN30408cl7 (H5N1) [5] = type: in vivo, BALB/c mice; details: 21 days
Ind3006 (H5N1) [6] = system: Ind3006 (H5N1); design: species or system BALB/c mice; Virus titers in Lungs, Day 6 / Virus titers in Brain, Day 6: unit not given here; details: mouse, in vivo
[7] = system: NA of A/Panama/2007/99 (H3N2); type: binding, influenza A virus (H3N2)
[8] = molecular target: NA of Ind3006 (A/Indonesia/UT3006/05, H5N1) (Influenza A virus, UniProt I6YWY9); experiment: biochemical
[9] = system: NA of A/New Caledonia/20/99 (H1N1); type: binding, influenza A virus (H1N1)
NA of B/Mie/1/93 = type: binding, influenza B virus

Molecule	prophylactic efficacy (survival) (HN30408cl7 (H5N1) [1])	Virus titers in Brain, Day 3 (HN30408cl7 (H5N1) [2])	Virus titer in Brain, Day 3 (HN30408cl7 (H5N1) [3])	mice protected from lethal infection (Ind3006 (H5N1) [4])	mice protected from lethal infection (HN30408cl7 (H5N1) [5])	Virus titers in Brain, Day 3 (Ind3006 (H5N1) [6])	Virus titers in Brain, Day 6 (Ind3006 (H5N1) [6])	Virus titers in Brain, Day 9 (Ind3006 (H5N1) [6])	Virus titers in Lungs, Day 6 (Ind3006 (H5N1) [6])	Virus titers in Lungs, Day 9 (Ind3006 (H5N1) [6])	Slope of the dissociation curve [7]	IC50 [8]	Slope of the dissociation curve [9]	Slope of the dissociation curve (NA of B/Mie/1/93)	further results
[H]/N=C(\N)N[C@H]1C=C(C(=O)O)O[C@@H]([C@H](OC)[C@H](O)COC(=O)CCCCCCC)[C@@H]1NC(C)=O [CS-8958]	limited	<1.6	<1.6	70%	90%	<1.6	<1.6	<1.6	7.2±0.1 and 4.5±1.4	<1.7					protection from the lethal infection (prophylaxis) (HN30408cl7 (H5N1) [1]): significantly protected; Virus titers in Brain, Day 6 (HN30408cl7 (H5N1) [2]): 2.0±0.3 and <1.6
CCOC(=O)C1=C[C@@H](OC(CC)CC)[C@H](NC(C)=O)[C@@H](N)C1 [Oseltamivir phosphate]	limited	<1.6	<1.6	less than half	less than half	<1.6	3.1±0.3 and 2.6±0.1 and 3.2±1.2 and 3.3±0.9	<1.6	7.5±0.2 and 7.4±0.2 and 7.4±0.1 and 7.2±0.1	<1.7					Virus titers in Brain, Day 9 (HN30408cl7 (H5N1) [2]): 4.8 and 4.7±0.4 and 3.7 and 5.1; Virus titers in Lungs, Day 3 (HN30408cl7 (H5N1) [2]): 6.0±0.1 and 5.0±0.6 and 6.2±0.2; Virus titers in Lungs, Day 6 (HN30408cl7 (H5N1) [2]): 5.2±0.1 and 5.5±0.4 and 3.8±0.5 and 6.4±0.6; Virus titers in Lungs, Day 9 (HN30408cl7 (H5N1) [2]): 4.9±1.8 and 4.7±0.6 and 4.7±1.4 and 6.1; Virus titer in Brain, Day 6 (HN30408cl7 (H5N1) [3]): 2.6 and <1.6; Virus titer in Lungs, Day 3 (HN30408cl7 (H5N1) [3]): 5.5±0.7 and 4.3±1.9 and 3.2±2.9 and 5.8±0.8; Virus titer in Lungs, Day 6 (HN30408cl7 (H5N1) [3]): 5.6±0.4 and 6.1±0.2 and 6.0±0.0 and 6.0±0.4; mice saved from lethal infection (Ind3006 (H5N1) [4]): 50%; mice saved from lethal infection (HN30408cl7 (H5N1) [5]): 90%; Virus titers in Lungs, Day 3 (Ind3006 (H5N1) [6]): 7.5±0.1 and 7.2±0.1 and 7.1±0.2
CC(=O)N[C@H]1[C@H]([C@H](O)[C@H](O)CO)OC(C(=O)O)=C[C@@H]1N=C(N)N [Zanamivir]											2.10	0.07 nM	140.10	184.10	
Peramivir											0.19		43.10	180.66	Slope difference [7]: -48.81; Slope difference [9]: -456.52; Slope difference (NA of B/Mie/1/93): -773.42
CCC(CC)O[C@@H]1C=C(C(=O)O)C[C@H](N)[C@H]1NC(C)=O [Oseltamivir carboxylate]											6.97	10 nM	173.34	381.21	recovery of NA activity (NA of B/Mie/1/93): almost fully recovered

— publication PMC2829070 (PLoS Pathogens, 2010)
